Data reported in US20020025307A1, “Bone sialoprotein based toxic gene therapy for the treatment of calcified tumors and tissues” (priority 1998, published 2002).

What was measured:
[1] = Body weight of experimental animals in the PC-3 tumor study; type: in vivo, athymic nude (nu/nu) mice; conditions: nude mice bearing PC3 tumors; intratumoral Ad-BSP-TK; GCV 40 mg/kg i.p.
Description: FIG. 10 represents an in vivo experiment performed with 16 animals. Briefly, congenitally athymic nude (nu/nu) mice (Harlan Co., Houston, Tex.) 5 to 6 weeks of age, were inoculated s.c. with 2 million PC3 prostate cancer cells. When the tumor became palpable (4-5 mm in diameter), approximately 10 days after cell injection, the animals were randomly assigned to four experimental groups: group: 1, control group with no treatment; 2, intratumoral PBS on days 10, 17, 24 and 30; 3, Ad-BSP-TK only; and 4, Ad-BSP-TK plus GCV given on days 10-40. For Ad-BSP-TK injections, a microliter syringe fitted with a 28 gauge needle was used to deliver 75 μl of Ad-BSP-TK (1×10^9 plaque-forming units). The Ad-BSP-TK was injected intratumorally along both the long and short axes of the tumor; one injection parallel to the long axis, and one perpendicular to the axis. The needle point was then rotated within the tumor to maximize the area of Ad delivery. Tumor volume was calculated by the following formula: volume (a rotational ellipsoid)-M1xM2^2×0.5236 (M1, long axis; M2, short axis; Ko. S-C., Gotoh, A., Thalmann, G. N., Zhou, H. E., Johnston, D. A, Zhang, W. W., Kao, C., and Chung, L. W. K. Molecular therapy with recombinant p53 adenovirus in an androgen independent, metastatic human prostate cancer model. Hum. Gene Ther., 7:1683-1691, 1996). […]

BSP promoter = assay: BSP promoter-driven luciferase reporter activity in transfected cells; type: cell-based, human; conditions: mineralization conditions versus T media, 2186 base pair construct
Protocol: Cells ([…]) were exposed to a BSP promoter-luciferase vector (2.5 ug) with liposome mediated transfection for 4-6 hours, then allowed to grow approximately 2 days at which time cell lysates were obtained and assayed for relative luciferase activity (RLU). All values were standardized with cotransfection of CMV-betagalactosidase reporter plasmid (0.5 ug).

Row | SMILES | effect on body weight [1] | BSP promoter expression as RLU (BSP promoter; C4-2B4) | BSP promoter expression as RLU (BSP promoter; Du-145) | BSP promoter expression as RLU (BSP promoter; PC-3)
1 | Nc1nc(O)c2ncn(COC(CO)CO)c2n1 [GCV, Gancyclovir] | did not adversely affect the body weight |  |  | 
2 | O=C1O[C@H]([C@@H](O)CO)C(O)=C1O [L-ascorbic acid] |  | hightened response | hightened response | hightened response
